Source: patent US20040175737A1, “Assay for RNase H activity” (Wyeth, priority 2002, published 2004)

Target: T1, HIV RT RNase H (Human immunodeficiency virus type 1 group M subtype B, UniProt P04585)
T1 construct: HIV p66/p51 heterodimer; purchased Enzyco, Inc. (Replidyne Inc., Louisville Colo.)
Test: PAGE-based endpoint assay for HIV RT RNase H activity, titrated with single stranded RNA or DNA contaminants
Format: biochemical
Conditions: 5, 10 and 50 pmol RNA; molar ratios to RNA-DNA hybrid substrate 1:1, 2:1 and 10:1; 1 U HIV RT enzyme; 37° C.
Text: RNase H. Samples of HIV p66/p51 heterodimer were obtained from Enzyco, Inc. (Replidyne Inc., Louisville Colo.) Methods for the recombinant expression, purification and characterization of this enzyme have been previously described (Thimmig & McHenry, J. Biol. Chem. 1993, 268:16528-16536). Purity of the enzyme samples was verified on polyacrylamide gels. […] Samples of E. coli RNase H1 were purchased from EPICENTR (Madison, Wis.).
Radiolabled RNA was generated by incorporating ^33P-ATP in the T7 RNA polymerase reaction, and annealed to an unlabeled ssDNA 49mer having the nucleotide sequence set forth in SEQ ID NO:2 (shown below). In an alternative version of these experiments, the complementary DNA oligonucleotide (SEQ ID NO:2) was radiolabeled with ^33P at the 5′ end by T4 PNK, and annealed to the unlabeled 29mer ssRNA (SEQ ID NO: 1).
Time dependent RNA degradation by RNase H. Aliquots containing 0.5 pmol of the radio-labeled DNA-RNA substrate ([…]) were incubated in Tris buffer (pH 8) with 10 mM MgCl2, KCl (between 0 and 30 mM), 3% glycerol, 0.2% NP-40, 50 μg/ml BSA and 1 mM DTT. […] The reaction products were analyzed by PAGE. […]

| Substance | inhibition of HIV RT RNase H activity (measured amount of end-labeled ssDNA after reaction) |
| --- | --- |
| homopolymeric U: homopolymeric polyU, 5′-(U)n-3′, n ≈ 500 to 1000, SEQ ID NO:4 | did not inhibit |
| homopolymeric A: homopolymeric polyA, 5′-(A)n-3′, n ≈ 500 to 1000, SEQ ID NO:3 | did not inhibit |
